Test results as given in ChEMBL document CHEMBL1201862, “PubChem BioAssay data set” (2004).
Calls of active or inactive are those of the source.

What was measured:
[1] = molecular target: Sphingosine 1-phosphate receptor 4 (Homo sapiens, UniProt O95977); test: Late-stage fluorescence dose response cell-based assay to identify agonists of the Sphingosine 1-Phosphate Receptor 4 (S1P4): purchased compounds EC50. [Related pubchem assays (depositor defined):AID1509, AID1523, AID1563, AID1686, AID1701, AID1801]; assay type: functional
[2] = molecular target: 1-acylglycerol-3-phosphate O-acyltransferase ABHD5/Perilipin-5 (Homo sapiens, UniProt Q00G26+Q8WTS1); test: Luminescence-based biochemical high throughput dose response assay for inhibitors of the interaction of the lipase co-activator protein, abhydrolase domain containing 5 (ABHD5) with perilipin-5 (MLDP; PLIN5) (2K validation set). [Related pubchem assays (depositor defined):AID493035, AID493241]
Perilipin-1/ABHD5 = Perilipin-1/ABHD5 (Homo sapiens, UniProt O60240+Q8WTS1); test: Luminescence-based biochemical high throughput dose response assay for inhibitors of the interaction of the lipase co-activator protein, abhydrolase domain containing 5 (ABHD5) with perilipin-1 (PLIN1) (2K validation set). [Related pubchem assays (depositor defined):AID493027, AID493057]
Coagulation factor XII = Coagulation factor XII (Homo sapiens, UniProt P00748); assay type: functional;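 further: activated factor XIIa alpha cleaving a fluorogenic AMC peptide substrate; inhibitor potency from loss of enzyme activity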
[3] = molecular target: T1, RNA-binding protein pos-1 (Caenorhabditis elegans, UniProt G5EF15); test: disruptors of C. elegans POS-1 RNA interaction – biochemical, fluorescence polarization, dose response (AID 1964);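 further: purified POS-1 fused to maltose binding protein made in E. coli; potency of compounds blocking POS-1 binding to fluorescent RNA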
T1 sequence (G5EF15 whole entry): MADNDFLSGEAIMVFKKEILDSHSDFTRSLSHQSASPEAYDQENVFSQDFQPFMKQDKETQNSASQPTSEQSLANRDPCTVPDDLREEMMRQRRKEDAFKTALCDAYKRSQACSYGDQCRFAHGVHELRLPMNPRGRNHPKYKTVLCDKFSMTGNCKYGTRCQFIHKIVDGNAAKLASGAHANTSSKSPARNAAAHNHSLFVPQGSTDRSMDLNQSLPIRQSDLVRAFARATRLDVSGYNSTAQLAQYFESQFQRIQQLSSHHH

[4] = molecular target: T2, Zinc finger protein mex-5 (Caenorhabditis elegans, UniProt Q9XUB2); test: potency of MEX-5 RNA-binding blockers – biochemical, C. elegans, fluorescence polarization, dose response (AID 1960)
T2 sequence (Q9XUB2 whole entry): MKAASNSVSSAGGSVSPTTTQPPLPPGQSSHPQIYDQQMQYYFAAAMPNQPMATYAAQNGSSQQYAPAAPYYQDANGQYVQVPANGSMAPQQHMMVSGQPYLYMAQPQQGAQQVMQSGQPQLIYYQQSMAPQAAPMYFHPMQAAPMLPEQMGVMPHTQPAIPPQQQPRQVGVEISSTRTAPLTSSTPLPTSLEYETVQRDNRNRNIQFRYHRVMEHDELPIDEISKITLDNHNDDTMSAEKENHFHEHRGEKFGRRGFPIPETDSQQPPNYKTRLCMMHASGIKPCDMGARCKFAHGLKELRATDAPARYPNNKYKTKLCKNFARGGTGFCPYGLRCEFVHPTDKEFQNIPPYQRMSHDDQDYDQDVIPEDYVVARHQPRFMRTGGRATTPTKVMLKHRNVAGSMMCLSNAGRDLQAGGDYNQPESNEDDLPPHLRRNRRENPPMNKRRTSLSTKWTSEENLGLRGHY

Ion channel NompC = Ion channel NompC (Danio rerio, UniProt Q7T1G6); test: Dose response cell-based high-throughput screening assay for agonists of the transient receptor potential channel N1 (TRPN1). [Related pubchem assays (depositor defined):AID1424, AID1448]; assay type: functional
Mucolipin-3 = Mucolipin-3 (Homo sapiens, UniProt Q8TDD5); test: Fluorescence counterscreen assay for […] agonists: dose response cell-based high-throughput screening assay to identify agonists of the transient receptor potential channel ML3 (TRPML3). [Related pubchem assays: 1424, 1448 ]; assay type: functional
[5] = molecular target: T3, Corticotropin-releasing factor receptor 2/Corticotropin-releasing factor-binding protein (Homo sapiens, UniProt P24387+Q13324); test: activators of CRF receptor 2 with binding protein – uHTS hits, confirmation (AID 602473); assay type: functional; settings: read-out: EC50_Mean
T3 sequence (Q13324 whole entry): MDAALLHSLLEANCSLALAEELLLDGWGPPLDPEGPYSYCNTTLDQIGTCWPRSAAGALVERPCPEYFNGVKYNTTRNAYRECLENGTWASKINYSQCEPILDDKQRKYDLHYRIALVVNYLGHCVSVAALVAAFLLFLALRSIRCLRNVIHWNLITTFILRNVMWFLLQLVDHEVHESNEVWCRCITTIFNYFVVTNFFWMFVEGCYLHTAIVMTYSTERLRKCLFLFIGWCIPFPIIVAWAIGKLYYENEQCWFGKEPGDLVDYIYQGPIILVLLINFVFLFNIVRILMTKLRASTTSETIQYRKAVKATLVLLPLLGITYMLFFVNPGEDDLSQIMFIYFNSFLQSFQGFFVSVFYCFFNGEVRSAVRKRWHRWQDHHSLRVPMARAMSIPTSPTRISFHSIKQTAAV
T3 sequence (P24387 whole entry): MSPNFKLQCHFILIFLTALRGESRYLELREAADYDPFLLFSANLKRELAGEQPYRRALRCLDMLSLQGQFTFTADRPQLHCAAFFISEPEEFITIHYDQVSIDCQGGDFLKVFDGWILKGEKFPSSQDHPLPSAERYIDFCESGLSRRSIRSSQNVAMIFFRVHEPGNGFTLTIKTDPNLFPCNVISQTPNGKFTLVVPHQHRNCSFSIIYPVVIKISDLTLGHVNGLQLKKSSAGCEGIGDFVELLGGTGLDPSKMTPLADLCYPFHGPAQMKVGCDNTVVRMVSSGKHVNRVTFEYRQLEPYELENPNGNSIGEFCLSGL

[6] = molecular target: T4, Tyrosine-protein phosphatase non-receptor type 7 (Homo sapiens, UniProt P35236); test: SAR analysis of chemical inhibitors of HePTP using a Fluorescent assay - Set 2. [Related pubchem assays (depositor defined):AID1059, AID1077, AID1661, AID2085, AID521]; assay type: functional
T4 sequence (P35236 whole entry): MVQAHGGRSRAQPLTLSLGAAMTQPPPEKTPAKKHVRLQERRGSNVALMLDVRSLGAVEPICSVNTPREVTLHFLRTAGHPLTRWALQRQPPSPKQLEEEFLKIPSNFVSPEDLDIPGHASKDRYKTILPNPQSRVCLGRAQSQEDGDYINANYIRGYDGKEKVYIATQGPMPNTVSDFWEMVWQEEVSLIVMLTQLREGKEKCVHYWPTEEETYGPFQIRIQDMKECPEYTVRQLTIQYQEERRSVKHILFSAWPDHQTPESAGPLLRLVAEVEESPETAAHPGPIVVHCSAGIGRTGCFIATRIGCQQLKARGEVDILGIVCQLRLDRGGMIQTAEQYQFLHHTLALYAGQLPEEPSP

[7] = molecular target: Dual specificity protein phosphatase 3 (Homo sapiens, UniProt P51452); test: SAR VHR1 Fluorescent Assay for In Vitro dose response studies Set 2. [Related pubchem assays (depositor defined):AID1654, AID1661, AID1878]; assay type: functional
Beta-galactosidase [8] = molecular target: T5, Beta-galactosidase (Escherichia coli, UniProt Q8VNN2); test: PubChem AID 485352; assay type: functional
[9] = Trypanosoma cruzi growth suppression in host cells – NIH3T3 host cells, beta-gal luminescence, confirmation (AID 2044); assay type: functional, cell-based;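 further: intracellular parasites grown in NIH/3T3 mouse fibroblasts as host cells; luminescent beta-galactosidase reporter signal from transgenic T. cruzi replicating inside host cells; inhibitors lower the luminescence signal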
[10] = molecular target: T6, Type-1 angiotensin II receptor (Homo sapiens, UniProt P30556); test: antagonism of angiotensin II type 1 receptor – cell-based, uHTS hits, selectivity assay for APJ receptor antagonist project, dose response (AID 463214); assay type: functional;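 further: antagonist potency against angiotensin II stimulated AT1 response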
T6 sequence (P30556 whole entry): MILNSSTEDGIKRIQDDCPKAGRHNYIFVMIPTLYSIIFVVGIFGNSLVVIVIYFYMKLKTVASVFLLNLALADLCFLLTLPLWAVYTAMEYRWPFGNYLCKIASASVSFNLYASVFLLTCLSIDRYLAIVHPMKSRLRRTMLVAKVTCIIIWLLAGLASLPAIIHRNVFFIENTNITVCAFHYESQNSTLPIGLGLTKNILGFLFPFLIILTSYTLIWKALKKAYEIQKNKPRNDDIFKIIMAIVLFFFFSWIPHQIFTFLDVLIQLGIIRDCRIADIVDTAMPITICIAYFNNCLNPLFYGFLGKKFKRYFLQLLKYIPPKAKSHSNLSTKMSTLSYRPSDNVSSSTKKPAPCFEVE

[11] = molecular target: T7, Kappa-type opioid receptor (Homo sapiens, UniProt P41145); assay type: functional
[12] = NIH3T3 cell viability loss – ATP luminescence, mouse fibroblasts, counter-screen, dose response (AID 2010); assay type: functional, cell-based;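 further: cells exposed to compound for about 90 hours before reading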
Beta-galactosidase [13] = molecular target: T5, Beta-galactosidase; assay type: functional
[14] = molecular target: T7, Kappa-type opioid receptor; assay type: functional; remark: listed apart in the source
Hexokinase HKDC1 = molecular target: T8, Hexokinase HKDC1 (Homo sapiens, UniProt Q2TB90); test: activation of HKDC1 glucose phosphorylation – biochemical, W721R variant, dose response (AID 504730); assay type: functional
T8 sequence (Q2TB90 whole entry): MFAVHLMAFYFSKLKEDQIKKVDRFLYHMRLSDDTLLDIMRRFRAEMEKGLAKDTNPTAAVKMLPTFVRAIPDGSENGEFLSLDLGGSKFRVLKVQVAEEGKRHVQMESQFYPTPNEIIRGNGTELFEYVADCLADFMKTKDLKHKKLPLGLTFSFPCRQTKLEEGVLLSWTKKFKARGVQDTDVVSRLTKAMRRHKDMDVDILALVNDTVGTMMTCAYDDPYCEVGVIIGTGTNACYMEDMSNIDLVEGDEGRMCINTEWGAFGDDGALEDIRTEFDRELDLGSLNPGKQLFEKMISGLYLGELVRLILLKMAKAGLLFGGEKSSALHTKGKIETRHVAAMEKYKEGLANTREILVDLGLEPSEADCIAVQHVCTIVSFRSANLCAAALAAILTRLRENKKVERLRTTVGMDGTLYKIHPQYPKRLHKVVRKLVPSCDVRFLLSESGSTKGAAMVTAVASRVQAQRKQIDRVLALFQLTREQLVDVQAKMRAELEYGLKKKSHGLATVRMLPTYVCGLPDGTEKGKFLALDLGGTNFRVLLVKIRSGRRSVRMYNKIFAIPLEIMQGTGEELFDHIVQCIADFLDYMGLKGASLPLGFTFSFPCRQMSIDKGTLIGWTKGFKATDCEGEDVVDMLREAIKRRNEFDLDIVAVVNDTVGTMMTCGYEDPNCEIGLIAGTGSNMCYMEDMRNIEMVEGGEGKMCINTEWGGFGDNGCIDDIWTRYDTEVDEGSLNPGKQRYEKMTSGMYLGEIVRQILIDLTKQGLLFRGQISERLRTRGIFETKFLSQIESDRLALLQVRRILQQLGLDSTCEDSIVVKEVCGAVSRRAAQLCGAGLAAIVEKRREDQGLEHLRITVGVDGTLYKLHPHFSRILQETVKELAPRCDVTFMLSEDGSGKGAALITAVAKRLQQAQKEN

Hexokinase-1 = Hexokinase-1 (Homo sapiens, UniProt P19367); test: HK1 enzyme activation by HKDC1 hits – biochemical, selectivity assay for HKDC1 activator project, dose response (AID 504762); assay type: functional
[15] = molecular target: 26S proteasome non-ATPase regulatory subunit 14 (Homo sapiens, UniProt O00487); test: inhibition of proteasome subunit RPN11 – biochemical, fluorescence polarization, uHTS hits, confirmation (AID 602368); assay type: functional
[16] = molecular target: 72 kDa type IV collagenase (Homo sapiens, UniProt P08253); test: Dose Response validation of uHTS RPN11 inhibitor hits using a MMP-2 Fluorescence assay.; assay type: functional
Prothrombin = Prothrombin (Bos taurus, UniProt P00735); test: thrombin protease inhibitors – biochemical, fluorescence polarization, uHTS hits, dose response (AID 602369); assay type: functional
Protein Wnt-3a = Protein Wnt-3a (Mus musculus, UniProt P27467); test: antagonism of Wnt3a pathway luciferase reporter – Wnt-LIGHT cells, luminescence, selectivity assay for Gli-SUFU antagonist project, dose response (AID 651570); assay type: functional; settings: read-out: IC50_Mean;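 further: Wnt-LIGHT reporter cells stimulated with conditioned medium from Wnt3a-producing cells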
Protein Wnt-3a, sequence (P27467 whole entry): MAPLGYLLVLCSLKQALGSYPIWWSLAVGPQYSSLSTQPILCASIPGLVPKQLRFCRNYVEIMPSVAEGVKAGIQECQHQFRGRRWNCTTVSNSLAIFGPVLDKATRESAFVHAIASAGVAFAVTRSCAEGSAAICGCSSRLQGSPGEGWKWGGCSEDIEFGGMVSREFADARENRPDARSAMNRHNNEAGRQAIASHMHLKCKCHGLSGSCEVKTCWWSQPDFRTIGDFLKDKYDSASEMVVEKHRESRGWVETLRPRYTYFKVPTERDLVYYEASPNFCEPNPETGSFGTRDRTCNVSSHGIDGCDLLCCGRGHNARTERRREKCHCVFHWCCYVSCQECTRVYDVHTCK

T7 sequence (P41145 whole entry): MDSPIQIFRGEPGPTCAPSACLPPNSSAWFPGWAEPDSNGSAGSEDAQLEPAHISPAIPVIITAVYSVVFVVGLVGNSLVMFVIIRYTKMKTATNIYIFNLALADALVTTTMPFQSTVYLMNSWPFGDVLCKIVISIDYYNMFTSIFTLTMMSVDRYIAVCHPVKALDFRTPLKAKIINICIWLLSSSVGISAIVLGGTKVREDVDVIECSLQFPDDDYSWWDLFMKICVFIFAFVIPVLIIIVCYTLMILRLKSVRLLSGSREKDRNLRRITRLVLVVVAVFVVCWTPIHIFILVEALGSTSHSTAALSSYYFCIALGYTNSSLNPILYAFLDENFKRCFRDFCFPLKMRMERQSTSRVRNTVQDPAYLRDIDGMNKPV
T5 sequence (Q8VNN2 whole entry): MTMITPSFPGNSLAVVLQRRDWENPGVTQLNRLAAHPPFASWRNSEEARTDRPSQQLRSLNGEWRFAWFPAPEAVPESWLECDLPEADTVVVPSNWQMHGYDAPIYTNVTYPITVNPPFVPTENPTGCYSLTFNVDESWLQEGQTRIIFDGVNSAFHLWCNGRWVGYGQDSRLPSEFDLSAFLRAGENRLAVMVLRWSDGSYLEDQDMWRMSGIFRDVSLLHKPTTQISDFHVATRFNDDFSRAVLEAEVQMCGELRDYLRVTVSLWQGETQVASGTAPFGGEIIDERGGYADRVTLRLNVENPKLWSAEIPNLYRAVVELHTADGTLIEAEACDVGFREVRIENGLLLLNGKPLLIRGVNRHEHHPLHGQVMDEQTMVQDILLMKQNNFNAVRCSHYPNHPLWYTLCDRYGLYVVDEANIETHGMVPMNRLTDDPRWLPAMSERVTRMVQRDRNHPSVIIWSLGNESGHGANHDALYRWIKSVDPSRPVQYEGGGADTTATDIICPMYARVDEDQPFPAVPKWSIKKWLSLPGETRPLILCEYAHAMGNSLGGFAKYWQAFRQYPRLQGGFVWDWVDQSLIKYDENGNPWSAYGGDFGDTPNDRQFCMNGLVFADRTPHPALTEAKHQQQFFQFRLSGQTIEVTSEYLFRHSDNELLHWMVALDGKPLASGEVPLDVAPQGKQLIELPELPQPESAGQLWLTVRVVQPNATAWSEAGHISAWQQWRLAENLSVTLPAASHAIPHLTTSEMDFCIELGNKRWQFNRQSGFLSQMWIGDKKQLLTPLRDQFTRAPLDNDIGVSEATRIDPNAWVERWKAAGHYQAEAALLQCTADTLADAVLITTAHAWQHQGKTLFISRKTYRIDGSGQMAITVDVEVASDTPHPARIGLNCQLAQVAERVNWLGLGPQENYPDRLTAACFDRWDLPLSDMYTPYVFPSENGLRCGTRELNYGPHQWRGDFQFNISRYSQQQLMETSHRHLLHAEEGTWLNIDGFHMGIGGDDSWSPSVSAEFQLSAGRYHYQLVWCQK
Ion channel NompC, sequence (Q7T1G6 whole entry): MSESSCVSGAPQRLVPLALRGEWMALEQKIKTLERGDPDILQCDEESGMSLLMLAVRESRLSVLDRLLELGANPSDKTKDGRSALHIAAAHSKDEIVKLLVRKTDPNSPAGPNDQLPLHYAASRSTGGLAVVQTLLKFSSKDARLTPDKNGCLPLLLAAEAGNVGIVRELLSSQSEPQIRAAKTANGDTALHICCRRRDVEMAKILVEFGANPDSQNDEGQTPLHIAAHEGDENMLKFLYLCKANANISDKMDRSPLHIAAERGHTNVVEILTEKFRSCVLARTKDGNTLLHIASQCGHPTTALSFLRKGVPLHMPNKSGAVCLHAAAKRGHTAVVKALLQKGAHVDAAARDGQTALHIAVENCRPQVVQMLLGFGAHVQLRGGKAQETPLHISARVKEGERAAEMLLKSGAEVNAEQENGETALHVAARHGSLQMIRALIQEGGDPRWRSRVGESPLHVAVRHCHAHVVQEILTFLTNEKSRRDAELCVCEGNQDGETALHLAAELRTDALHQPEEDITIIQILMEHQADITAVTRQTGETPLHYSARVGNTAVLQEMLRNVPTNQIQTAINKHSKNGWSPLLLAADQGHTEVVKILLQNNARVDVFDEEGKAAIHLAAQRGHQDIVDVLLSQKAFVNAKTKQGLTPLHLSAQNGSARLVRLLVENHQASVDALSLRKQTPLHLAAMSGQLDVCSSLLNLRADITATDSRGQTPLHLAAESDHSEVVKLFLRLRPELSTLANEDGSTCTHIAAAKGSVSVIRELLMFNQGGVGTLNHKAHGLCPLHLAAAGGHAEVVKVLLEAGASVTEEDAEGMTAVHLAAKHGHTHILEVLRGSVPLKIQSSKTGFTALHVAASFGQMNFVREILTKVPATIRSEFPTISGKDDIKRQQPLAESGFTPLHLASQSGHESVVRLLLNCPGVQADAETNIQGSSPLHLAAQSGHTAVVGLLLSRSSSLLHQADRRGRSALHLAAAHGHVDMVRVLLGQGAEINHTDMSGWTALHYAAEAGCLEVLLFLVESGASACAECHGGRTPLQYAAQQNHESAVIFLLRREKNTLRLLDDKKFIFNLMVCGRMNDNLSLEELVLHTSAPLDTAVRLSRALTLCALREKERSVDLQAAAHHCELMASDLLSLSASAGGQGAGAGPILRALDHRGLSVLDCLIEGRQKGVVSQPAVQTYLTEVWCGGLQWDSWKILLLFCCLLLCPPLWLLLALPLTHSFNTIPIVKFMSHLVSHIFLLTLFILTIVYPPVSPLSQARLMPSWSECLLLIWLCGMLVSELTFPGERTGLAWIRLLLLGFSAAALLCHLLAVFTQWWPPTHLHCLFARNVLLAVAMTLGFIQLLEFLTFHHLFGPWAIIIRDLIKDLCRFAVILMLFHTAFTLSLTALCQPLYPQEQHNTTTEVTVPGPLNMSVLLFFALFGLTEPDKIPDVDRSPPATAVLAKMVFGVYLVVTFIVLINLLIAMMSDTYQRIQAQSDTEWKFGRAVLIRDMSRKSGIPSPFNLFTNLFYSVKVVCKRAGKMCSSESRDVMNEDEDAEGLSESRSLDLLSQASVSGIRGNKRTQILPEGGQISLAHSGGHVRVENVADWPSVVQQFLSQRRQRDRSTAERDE
Sphingosine 1-phosphate receptor 4, sequence (O95977 whole entry, the tested form may be a part): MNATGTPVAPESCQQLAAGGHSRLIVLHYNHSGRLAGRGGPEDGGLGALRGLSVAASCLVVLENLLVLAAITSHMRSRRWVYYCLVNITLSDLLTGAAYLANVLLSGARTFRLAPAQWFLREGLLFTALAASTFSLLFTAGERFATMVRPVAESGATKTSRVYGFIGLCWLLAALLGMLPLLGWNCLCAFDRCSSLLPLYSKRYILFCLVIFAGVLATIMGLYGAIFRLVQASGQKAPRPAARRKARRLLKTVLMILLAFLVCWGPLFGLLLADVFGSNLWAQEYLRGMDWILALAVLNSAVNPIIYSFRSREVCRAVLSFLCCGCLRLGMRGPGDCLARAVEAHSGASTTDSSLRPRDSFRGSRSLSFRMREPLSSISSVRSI
Perilipin-1/ABHD5, sequence (Q8WTS1 whole entry, the tested form may be a part): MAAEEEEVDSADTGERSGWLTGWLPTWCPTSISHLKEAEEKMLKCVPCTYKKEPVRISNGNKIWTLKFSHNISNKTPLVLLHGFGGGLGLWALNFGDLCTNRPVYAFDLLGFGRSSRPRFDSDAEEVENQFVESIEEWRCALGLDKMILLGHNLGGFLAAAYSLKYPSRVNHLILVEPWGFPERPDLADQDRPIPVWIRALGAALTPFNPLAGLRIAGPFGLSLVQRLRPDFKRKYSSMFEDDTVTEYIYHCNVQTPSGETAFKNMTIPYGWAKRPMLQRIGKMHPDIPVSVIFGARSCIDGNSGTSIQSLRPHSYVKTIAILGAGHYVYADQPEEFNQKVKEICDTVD
Perilipin-1/ABHD5, sequence (O60240 whole entry, the tested form may be a part): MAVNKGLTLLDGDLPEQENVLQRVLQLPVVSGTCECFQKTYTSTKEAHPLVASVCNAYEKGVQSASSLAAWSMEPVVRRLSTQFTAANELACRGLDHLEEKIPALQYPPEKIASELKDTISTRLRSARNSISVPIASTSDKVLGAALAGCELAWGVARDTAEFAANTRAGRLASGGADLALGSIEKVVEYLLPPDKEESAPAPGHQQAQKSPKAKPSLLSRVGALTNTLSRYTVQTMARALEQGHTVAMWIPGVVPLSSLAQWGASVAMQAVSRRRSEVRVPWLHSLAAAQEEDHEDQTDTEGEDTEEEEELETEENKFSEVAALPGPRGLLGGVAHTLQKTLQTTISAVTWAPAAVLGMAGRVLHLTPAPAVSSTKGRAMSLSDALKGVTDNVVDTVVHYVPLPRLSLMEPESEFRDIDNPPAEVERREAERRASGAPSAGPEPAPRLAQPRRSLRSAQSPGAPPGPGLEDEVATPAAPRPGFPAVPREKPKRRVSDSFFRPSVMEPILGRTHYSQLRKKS
26S proteasome non-ATPase regulatory subunit 14, sequence (O00487 whole entry): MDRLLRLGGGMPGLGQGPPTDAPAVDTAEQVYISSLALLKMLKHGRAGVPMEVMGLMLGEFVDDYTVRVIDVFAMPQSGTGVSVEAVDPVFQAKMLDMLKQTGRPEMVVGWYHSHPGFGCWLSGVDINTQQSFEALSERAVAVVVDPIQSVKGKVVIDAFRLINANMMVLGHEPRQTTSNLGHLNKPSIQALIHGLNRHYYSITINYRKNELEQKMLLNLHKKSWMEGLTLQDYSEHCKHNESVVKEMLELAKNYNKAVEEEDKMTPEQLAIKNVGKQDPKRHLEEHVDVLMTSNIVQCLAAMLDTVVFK

## Cc1ccc(OCC(=O)Nc2ccc(Cl)cc2)c([N+](=O)[O-])n1
[1]
  EC50: > 50 µM (inactive)

## CC1(c2ccccc2)CC(C)(C)N2C(=O)C(=O)c3cccc1c32 (centres undefined)
[2]
  IC50: 21.7 µM (inactive)
Perilipin-1/ABHD5
  IC50: 19 µM (inactive)

## COc1cc(-c2nnco2)cc(OC)c1OC
Coagulation factor XII
  IC50: > 50 µM (inactive)

## Nc1c(C(=O)c2ccc(Cl)cc2)sc2nsc(SCCN3CCOCC3)c12
[3]
  EC50: > 300 µM (not active)
[4]
  EC50: 74.2 µM (inconclusive)
Ion channel NompC
  EC50: > 9.97 µM (inactive)
Mucolipin-3
  EC50: > 9.97 µM (not active)
[5]
  EC50: 9.14 µM (active)

## Oc1ccc(C(=S)NCc2ccc(F)c(C(F)(F)F)c2)cc1
[6]
  IC50: 30.9 µM (active)
[7]
  IC50: 40.9 µM (active)

## CC(=O)/C(=N\Nc1ccc(Cl)cc1Cl)Sc1cccc2cccnc12
Beta-galactosidase [8]
  EC50: > 40 µM (inactive)
[9]
  EC50: 0.289 µM (active)
[10]
  IC50: 10.6 µM (active)
[11]
  IC50: 9.32 µM (active)
[12]
  EC50: 26.7 µM (active)
Beta-galactosidase [13]
  EC50: > 31.5 µM (inactive)
[14]
  IC50: > 32 µM
Hexokinase HKDC1
  EC50: 15.5 µM (active)
Hexokinase-1
  EC50: > 80 µM (inactive)
[15]
  IC50: 32.2 µM (active)
[16]
  IC50: > 100 µM (inactive)
Prothrombin
  IC50: > 100 µM (inactive)
Protein Wnt-3a
  IC50: 11.4 µM (active)
